Where “and” joins values, the source holds several entries; their conditions need not be identical. Equal values may be shown once.
Tested on: RPMI-8226 cells
Assay: Gene expression profiling, NanoString nCounter PanCancer Pathways Panel, ROSALIND analysis
Assay type: cell-based, human
Conditions: RPMI-8226, TCH-165 samples 1-3
Description: RPMI-8226 cells were treated with vehicle or TCH-165 (10 μM) for 4 h. Total RNA was obtained using the mirVana miRNA Isolation Kit, with phenol (Thermofisher Scientific; AM1560; Waltham, MA, USA). Total RNA was quantified by Qubit (Thermofisher Scientific; Q32855; Waltham, MA, USA). and gene expression was evaluated against the nCounter® PanCancer Pathways Panel^TM according to the standard NanoString protocol.
Data were analyzed by ROSALIND® [36] with a hyperscale architecture developed by ROSALIND, Inc. (San Diego, CA, USA). Normalization, fold changes and p-values were calculated using criteria provided by NanoString. ROSALIND follows the nCounter® Advanced Analysis protocol of dividing counts within a lane by the geometric mean of the normalizer probes from the same lane. Housekeeping probes to be used for normalization are selected based on the geNorm algorithm, as implemented in the NormqPCR R library. Fold changes and p-values are calculated using the fast method as described in the nCounter Advanced Analysis 2.0 User Manual. The p-value adjustment is performed using the Benjamini–Hochberg method of estimating false discovery rates (FDR). Clustering of genes for the final heatmap of differentially expressed genes was done using the PAM (Partitioning Around Medoids) method using the fpc R library. Hypergeometric distribution was used to analyze the enrichment of pathways, gene ontology, domain structure and other ontologies. The topGO R library was used to determine local similarities and dependencies between GO terms in order to perform Elim pruning correction. Several database sources were referenced for enrichment analysis, including Interpro [40], NCBI [41], MSigDB [42, 43], REACTOME [44], WikiPathways. Enrichment was calculated relative to a set of background genes relevant to the experiment.

CCOC(=O)[C@]1(c2ccccc2)N=C(c2ccc(OC)cc2)N(Cc2ccccc2)[C@@H]1c1ccc(NCc2ccccc2)cc1 [TCH-165]
RPA3 normalized gene expression: 6.234 and 6.077 and 5.975
RPS6KA5 normalized gene expression: 8.162 and 8.249 and 8.109
RPS6KA6 normalized gene expression: 4.308 and 4.154 and 4.653
RPS27A normalized gene expression: 16.3114 and 16.3789 and 16.3612
RRAS2 normalized gene expression: 6.59 and 6.242 and 6.0682
RUNX1T1 normalized gene expression: 4.649 and 5.3768 and 5.0682
RUNX1 normalized gene expression: 7.156 and 7.154 and 7.31
RXRG normalized gene expression: 5.758 and 5.569 and 5.1271
SETBP1 normalized gene expression: 9.152 and 8.96 and 8.955
SETD2 normalized gene expression: 9.224 and 9.1619 and 9.096
SF3B1 normalized gene expression: 10.9301 and 10.7965 and 10.7773
SFN normalized gene expression: 7.723 and 7.476 and 7.668
SFRP1 normalized gene expression: 5.401 and 5.0613 and 4.731
SFRP2 normalized gene expression: 4.723 and 4.427 and 4.613
SFRP4 normalized gene expression: 1.986 and 2.3768 and 2.483
SGK2 normalized gene expression: 4.401 and 4.324 and 4.0682
SHC1 normalized gene expression: 10.583 and 10.7262 and 10.7216
SHC2 normalized gene expression: 3.723 and 3.962 and 3.653
SHC3 normalized gene expression: 6.308 and 6.364 and 6.251
SIN3A normalized gene expression: 9.8539 and 9.738 and 9.646
SIRT4 normalized gene expression: 5.156 and 4.739 and 5.238
SIX1 normalized gene expression: 3.571 and 3.3768 and 4.1271
SKP1 normalized gene expression: 12.8613 and 12.7826 and 12.7408
SKP2 normalized gene expression: 8.831 and 8.717 and 8.705
SMAD2 normalized gene expression: 9.453 and 9.37 and 9.493
SMAD3 normalized gene expression: 6.723 and 6.646 and 6.759
SMAD4 normalized gene expression: 9.445 and 9.475 and 9.381
SMAD9 normalized gene expression: 4.208 and 3.657 and 4.238
SMARCA4 normalized gene expression: 10.8723 and 10.9931 and 10.958
SMARCB1 normalized gene expression: 9.431 and 9.4165 and 9.399
SMC1A normalized gene expression: 10.4464 and 10.4079 and 10.3505
SMC1B normalized gene expression: 4.401 and 3.739 and 3.731
SMC3 normalized gene expression: 10.9533 and 10.9237 and 10.9519
SMO normalized gene expression: 5.986 and 5.657 and 5.341
SOCS1 normalized gene expression: 6.892 and 6.769 and 6.683
SOCS2 normalized gene expression: 5.955 and 5.476 and 5.5707
SOCS3 normalized gene expression: 5.827 and 5.351 and 5.613
SOS1 normalized gene expression: 8.45 and 8.321 and 8.235
SOS2 normalized gene expression: 7.434 and 7.338 and 7.36
SOST normalized gene expression: 3.86 and 3.3768 and 3.805
SOX9 normalized gene expression: 5.044 and 5.093 and 4.731
SP1 normalized gene expression: 7.695 and 7.694 and 7.736
SPOP normalized gene expression: 6.308 and 6.324 and 6.0531
SPP1 normalized gene expression: 11.9193 and 11.8738 and 11.9244
SPRY1 normalized gene expression: 4.308 and 4.154 and 4.184
SPRY2 normalized gene expression: 5.793 and 5.154 and 5.0682
SRSF2 normalized gene expression: 10.5286 and 10.321 and 10.2662
SSX1 normalized gene expression: 4.571 and 4.614 and 4.341
STAG2 normalized gene expression: 11.0854 and 11.0452 and 11.0734
STAT1 normalized gene expression: 8.92 and 8.846 and 9.0757
STAT3 normalized gene expression: 9.132 and 9.111 and 9.089
STAT4 normalized gene expression: 7.259 and 7.045 and 7.149
STK11 normalized gene expression: 7.868 and 7.592 and 7.623
STMN1 normalized gene expression: 12.569 and 12.5392 and 12.5363
SYK normalized gene expression: 10.2633 and 10.2568 and 10.1565
TCF3 normalized gene expression: 9.548 and 9.673 and 9.547
TCL1B normalized gene expression: 2.986 and 2.569 and 2.943
TET2 normalized gene expression: 7.142 and 7.021 and 6.918
TFDP1 normalized gene expression: 10.7659 and 10.7019 and 10.7109
TGFB1 normalized gene expression: 8.78 and 8.675 and 8.641
TGFB2 normalized gene expression: 3.86 and 3.27 and 3.943
TGFB3 normalized gene expression: 4.986 and 4.891 and 4.483
TGFBR2 normalized gene expression: 7.169 and 7.004 and 6.787
THBS1 normalized gene expression: 5.445 and 4.927 and 4.769
THBS4 normalized gene expression: 3.208 and 2.569 and 3.291
TIAM1 normalized gene expression: 5.793 and 5.476 and 5.414
TLR2 normalized gene expression: 6.355 and 5.855 and 5.876
TLR4 normalized gene expression: 8.52 and 8.18 and 8.197
TLX1 normalized gene expression: 3.86 and 4.427 and 4.1271
TMPRSS2 normalized gene expression: 6.182 and 6.093 and 6.1126
TNC normalized gene expression: 4.723 and 4.7789 and 4.39
TNF normalized gene expression: 4.986 and 4.817 and 5.0682
TNFAIP3 normalized gene expression: 7.658 and 7.488 and 7.528
TNFRSF10A normalized gene expression: 7.986 and 7.827 and 7.893
TNFRSF10B normalized gene expression: 6.61 and 6.5 and 6.602
TNFRSF10C normalized gene expression: 4.101 and 3.891 and 3.943
TNFRSF10D normalized gene expression: 6.827 and 6.476 and 6.461
TNFSF10 normalized gene expression: 8.202 and 8.1619 and 8.225
TNR normalized gene expression: 5.686 and 5.297 and 5.5707
TP53 normalized gene expression: 10.0117 and 9.981 and 9.929
TPO normalized gene expression: 4.924 and 5.184 and 5.156
TSC1 normalized gene expression: 8.714 and 8.273 and 8.399
TSHR normalized gene expression: 4.649 and 4.476 and 4.39
TSPAN7 normalized gene expression: 6.776 and 6.891 and 6.539
TTK normalized gene expression: 9.89 and 9.8374 and 9.804
U2AF1 normalized gene expression: 12.4063 and 12.4515 and 12.4562
UBB normalized gene expression: 12.5802 and 12.4733 and 12.4875
UBE2T normalized gene expression: 10.5402 and 10.5496 and 10.5687
UTY normalized gene expression: 3.86 and 4.093 and 4.0682
VEGFA normalized gene expression: 10.7951 and 10.7989 and 10.8309
